The numbers were not newly measured in US20040127476A1, “Oral testosterone delivery system with improved sustained release” (priority 2002, published 2004), which cites them from elsewhere.

The conditions of data set [1]: oral 200 mg twice daily (two doses).
For data set [2] the following is noted: oral 200 mg twice daily, double peak effect.

With `C[C@]12CC[C@H]3[C@@H](CCC4=CC(=O)CC[C@@]43C)[C@@H]1CC[C@@H]2O` [micronized testosterone, testosterone], the “time with total serum testosterone within the normal range” value in data set [1] is given as “greater than 12 h”. Also, the “time at desired level of serum testosterone, for each peak” value in data set [2] was “about 4 hours”.
